Laboratory results reported in ChEMBL document CHEMBL4406848, “Novel water soluble BODIPY compounds: Synthesis, photochemical, DNA interaction, topoisomerases inhibition and photodynamic activity properties” (Eur J Med Chem, 2019).
Calls of active or inactive are those of the source. The calls are words filed in the database; no cut-off is given here.

Tests used:
[1] = target: DNA topoisomerase II (Homo sapiens) (UniProt P11388+Q02880); experiment: Inhibition of recombinant human topoisomerase 2 assessed as supercoiled DNA at 12.5 uM incubated for 1 hr by ethidium bromide staining based agarose gel electrophoresis method relative to control; assay type: protein assay; set-up: scale not given: the % may be the effect or the level left
[2] = target: T1, DNA topoisomerase 1 (Homo sapiens) (UniProt P11387); experiment: Inhibition of recombinant human topoisomerase 1 assessed as supercoiled pBR322 DNA at 25 uM incubated for 1 hr by ethidium bromide staining based agarose gel electrophoresis method relative to control; set-up: scale not given: the % may be the effect or the level left
T1 sequence (whole entry): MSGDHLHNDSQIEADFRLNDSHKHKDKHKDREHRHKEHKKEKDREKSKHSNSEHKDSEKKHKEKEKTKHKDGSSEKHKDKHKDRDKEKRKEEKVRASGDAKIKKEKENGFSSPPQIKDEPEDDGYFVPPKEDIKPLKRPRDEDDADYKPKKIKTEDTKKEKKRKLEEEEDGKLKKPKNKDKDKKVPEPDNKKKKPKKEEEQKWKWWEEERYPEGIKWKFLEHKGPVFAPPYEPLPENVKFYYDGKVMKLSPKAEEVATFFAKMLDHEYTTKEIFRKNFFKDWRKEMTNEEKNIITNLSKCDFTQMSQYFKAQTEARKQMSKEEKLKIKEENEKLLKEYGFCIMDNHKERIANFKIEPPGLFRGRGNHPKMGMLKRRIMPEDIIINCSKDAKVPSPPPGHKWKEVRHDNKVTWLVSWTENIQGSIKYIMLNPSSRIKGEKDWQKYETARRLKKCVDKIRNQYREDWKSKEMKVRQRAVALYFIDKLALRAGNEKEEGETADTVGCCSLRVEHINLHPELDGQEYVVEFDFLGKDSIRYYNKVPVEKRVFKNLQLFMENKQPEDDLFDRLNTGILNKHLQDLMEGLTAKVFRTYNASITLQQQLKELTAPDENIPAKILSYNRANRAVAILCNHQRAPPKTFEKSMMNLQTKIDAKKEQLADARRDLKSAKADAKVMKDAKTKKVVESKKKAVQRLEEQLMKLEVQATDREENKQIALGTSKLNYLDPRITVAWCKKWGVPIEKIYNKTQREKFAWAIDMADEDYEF

[3] = system: Calf thymus DNA; experiment: Competitive binding affinity to calf thymus DNA assessed as binding constant in presence of ethidium bromide incubated for 10 mins by UV-visible spectrophotometry; assay type: nucleic-acid assay; conditions: Bos taurus

| Activity [1] | Activity [2] | Activity [3] | Structure (SMILES) |
| --- | --- | --- | --- |
| 77.5% | 66% | – | CC1=CC(/C=C/c2ccc(OCCCc3ccc[n+](C)c3)c(OCCCc3ccc[n+](C)c3)c2)=[N+]2C1=C(c1ccc(OCCCc3ccc[n+](C)c3)c(OCCCc3ccc[n+](C)c3)c1)c1c(C)cc(/C=C/c3ccc(OCCCc4ccc[n+](C)c4)c(OCCCc4ccc[n+](C)c4)c3)n1[B-]2(F)F.[I-].[I-].[I-].[I-].[I-].[I-] |
| – | – | inactive | CC1=CC(/C=C/c2ccc(OCCCc3ccc[n+](C)c3)cc2)=[N+]2C1=C(c1ccc(OCCCc3ccc[n+](C)c3)cc1)c1c(C)cc(/C=C/c3ccc(OCCCc4ccc[n+](C)c4)cc3)n1[B-]2(F)F.[I-].[I-].[I-] |
